Reference: US9499550B2 (BRISTOL-MYERS SQUIBB COMPANY, priority 2012, dated 2016)

Assays:
[1] = system: HCV genotype 1a (H77 strain) replicon in HUH-7 cells; experiment: HCV replicon luciferase reporter assay, genotype 1a; assay type: cell-based; details: Hepatitis C virus, Huh-7, 72 h, HCV genotype 1a replicon luciferase assay, 3 days incubation, range class, read-out: LE_1a (EC50, range)
Procedure, shortened: (§1)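 Replicon inhibition for both genotypes was measured as Renilla luciferase signal (EnduRen, 7.5 μM final, 2 h) after 3-day, 37° C exposure of replicon-bearing HUH-7 cells in 4% FCS DMEM, 0.5% DMSO. The 1b construct carries S1179I; the 1a H77 construct carries P1496L and S2204I. Twenty-point, 3-fold dilutions were fitted four-parametrically for EC50, and CC50 was taken from multiplexed Cell Titer-Blue.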

[2] = system: HCV genotype 1b (Con1) replicon in HUH-7 cells; experiment: HCV replicon luciferase reporter assay, genotype 1b; assay type: cell-based; details: Hepatitis C virus, Huh-7, 72 h, HCV genotype 1b replicon luciferase assay, 3 days incubation, range class, read-out: LE_1b (EC50, range)
Procedure, shortened: as §1

Row | SMILES | EC50 [1] [nM] | EC50 [2] [nM]
1 | COc1ccc2c(O[C@@H]3C[C@H]4C(=O)N[C@]5(C(=O)NS(=O)(=O)C6CC6)C[C@H]5/C=C\CC[C@H](C)C[C@@H](C)[C@H](NC(=O)O[C@@H]5C[C@@H]6C[C@@H]6C5)C(=O)N4C3)nc(-c3ccc(OC)c(Cl)c3)cc2c1 [Compound 3053, (1R,3r,5S)-bicyclo[3.1.0]hexan-3-yl((2R,6S,7R,9S,13aS,14aR,16aS,Z)-2-((3-(3-chloro-4-methoxyphenyl)-6-methoxyisoquinolin-1-yl)oxy)-14a-((cyclopropylsulfonyl)carbamoyl)-7,9-dimethyl-5,16-dioxo-1,2,3,5,6,7,8,9,10,11,13a,14,14a,15,16,16a-hexadecahydrocyclopropa[e]pyrrolo[1,2-a][1,4]diazacyclopentadecin-6-yl)carbamate] | < 5.46 | < 5.46
2 | COc1ccc2c(O[C@@H]3C[C@H]4C(=O)N[C@]5(C(=O)NS(=O)(=O)C6CC6)C[C@H]5/C=C\CC[C@@H](C)C[C@@H](C)[C@H](NC(=O)O[C@@H]5C[C@@H]6C[C@@H]6C5)C(=O)N4C3)nc(-c3ccc(OC)c(Cl)c3)cc2c1 [Compound 3054, (1R,3r,5S)-bicyclo[3.1.0]hexan-3-yl((2R,6S,7R,9R,13aS,14aR,16aS,Z)-2-((3-(3-chloro-4-methoxyphenyl)-6-methoxyisoquinolin-1-yl)oxy)-14a-((cyclopropylsulfonyl)carbamoyl)-7,9-dimethyl-5,16-dioxo-1,2,3,5,6,7,8,9,10,11,13a,14,14a,15,16,16a-hexadecahydrocyclopropa[e]pyrrolo[1,2-a][1,4]diazacyclopentadecin-6-yl)carbamate] | < 5.46 | < 5.46
3 | COc1ccc2c(O[C@@H]3C[C@H]4C(=O)N[C@]5(C(=O)NS(=O)(=O)C6CC6)C[C@H]5/C=C\CC[C@H](C)C[C@@H](C)[C@H](NC(=O)OC(C)(C)C(F)(F)F)C(=O)N4C3)nc(-c3ccc(OC)c(F)c3)cc2c1 [Compound 3055, 1,1,1-trifluoro-2-methylpropan-2-yl((2R,6S,7R,9S,13aS,14aR,16aS,Z)-14a-((cyclopropylsulfonyl)carbamoyl)-2-((3-(3-fluoro-4-methoxyphenyl)-6-methoxyisoquinolin-1-yl)oxy)-7,9-dimethyl-5,16-dioxo-1,2,3,5,6,7,8,9,10,11,13a,14,14a,15,16,16a-hexadecahydrocyclopropa[e]pyrrolo[1,2-a][1,4]diazacyclopentadecin-6-yl)carbamate] | 4.82 to 103 | < 5.46
4 | COc1ccc2c(O[C@@H]3C[C@H]4C(=O)N[C@]5(C(=O)NS(=O)(=O)C6CC6)C[C@H]5/C=C\CC[C@@H](C)C[C@@H](C)[C@H](NC(=O)OC(C)(C)C(F)(F)F)C(=O)N4C3)nc(-c3ccc(OC)c(F)c3)cc2c1 [Compound 3056, 1,1,1-trifluoro-2-methylpropan-2-yl((2R,6S,7R,9R,13aS,14aR,16aS,Z)-14a-((cyclopropylsulfonyl)carbamoyl)-2-((3-(3-fluoro-4-methoxyphenyl)-6-methoxyisoquinolin-1-yl)oxy)-7,9-dimethyl-5,16-dioxo-1,2,3,5,6,7,8,9,10,11,13a,14,14a,15,16,16a-hexadecahydrocyclopropa[e]pyrrolo[1,2-a][1,4]diazacyclopentadecin-6-yl)carbamate] | < 5.46 | < 5.46
5 | COc1ccc2c(O[C@@H]3C[C@H]4C(=O)N[C@]5(C(=O)NS(=O)(=O)C6CC6)C[C@H]5/C=C\CC[C@H](C)C[C@@H](C)[C@H](NC(=O)O[C@@H]5C[C@@H]6C[C@@H]6C5)C(=O)N4C3)nc(-c3ccc(OC)c(F)c3)cc2c1 [Compound 3057, (1R,3r,5S)-bicyclo[3.1.0]hexan-3-yl((2R,6S,7R,9S,13aS,14aR,16aS,Z)-14a-((cyclopropylsulfonyl)carbamoyl)-2-((3-(3-fluoro-4-methoxyphenyl)-6-methoxyisoquinolin-1-yl)oxy)-7,9-dimethyl-5,16-dioxo-1,2,3,5,6,7,8,9,10,11,13a,14,14a,15,16,16a-hexadecahydrocyclopropa[e]pyrrolo[1,2-a][1,4]diazacyclopentadecin-6-yl)carbamate] | < 5.46 | < 5.46
6 | COc1ccc2c(O[C@@H]3C[C@H]4C(=O)N[C@]5(C(=O)NS(=O)(=O)C6CC6)C[C@H]5/C=C\CC[C@@H](C)C[C@@H](C)[C@H](NC(=O)O[C@@H]5C[C@@H]6C[C@@H]6C5)C(=O)N4C3)nc(-c3ccc(OC)c(F)c3)cc2c1 [Compound 3058, (1R,3r,5S)-bicyclo[3.1.0]hexan-3-yl((2R,6S,7R,9R,13aS,14aR,16aS,Z)-14a-((cyclopropylsulfonyl)carbamoyl)-2-((3-(3-fluoro-4-methoxyphenyl)-6-methoxyisoquinolin-1-yl)oxy)-7,9-dimethyl-5,16-dioxo-1,2,3,5,6,7,8,9,10,11,13a,14,14a,15,16,16a-hexadecahydrocyclopropa[e]pyrrolo[1,2-a][1,4]diazacyclopentadecin-6-yl)carbamate] | < 5.46 | < 5.46
7 | COc1ccc2c(O[C@@H]3C[C@H]4C(=O)N[C@]5(C(=O)NS(=O)(=O)C6CC6)C[C@H]5/C=C\CC[C@H](C)C[C@@H](C)[C@H](NC(=O)OC(C)(C)C)C(=O)N4C3)nc(-c3ccc(OC(C)C)c(F)c3)cc2c1 [Compound 3059, tert-butyl ((2R,6S,7R,9S,13aS,14aR,16aS,Z)-14a-((cyclopropylsulfonyl)carbamoyl)-2-((3-(3-fluoro-4-isopropoxyphenyl)-6-methoxyisoquinolin-1-yl)oxy)-7,9-dimethyl-5,16-dioxo-1,2,3,5,6,7,8,9,10,11,13a,14,14a,15,16,16a-hexadecahydrocyclopropa[e]pyrrolo[1,2-a][1,4]diazacyclopentadecin-6-yl)carbamate] | 4.82 to 103 | < 5.46
8 | COc1ccc2c(O[C@@H]3C[C@H]4C(=O)N[C@]5(C(=O)NS(=O)(=O)C6CC6)C[C@H]5/C=C\CC[C@@H](C)C[C@@H](C)[C@H](NC(=O)OC(C)(C)C)C(=O)N4C3)nc(-c3ccc(OC(C)C)c(F)c3)cc2c1 [Compound 3060, tert-butyl ((2R,6S,7R,9R,13aS,14aR,16aS,Z)-14a-((cyclopropylsulfonyl)carbamoyl)-2-((3-(3-fluoro-4-isopropoxyphenyl)-6-methoxyisoquinolin-1-yl)oxy)-7,9-dimethyl-5,16-dioxo-1,2,3,5,6,7,8,9,10,11,13a,14,14a,15,16,16a-hexadecahydrocyclopropa[e]pyrrolo[1,2-a][1,4]diazacyclopentadecin-6-yl)carbamate] | < 5.46 | < 5.46
9 | COc1ccc2c(O[C@@H]3C[C@H]4C(=O)N[C@]5(C(=O)NS(=O)(=O)C6(C)CC6)C[C@H]5/C=C\CC[C@H](C)C[C@@H](C)[C@H](NC(=O)OC(C)(C)C)C(=O)N4C3)nc(-c3ccc(OC(C)C)c(F)c3)cc2c1 [Compound 3061, tert-butyl ((2R,6S,7R,9S,13aS,14aR,16aS,Z)-2-((3-(3-fluoro-4-isopropoxyphenyl)-6-methoxyisoquinolin-1-yl)oxy)-7,9-dimethyl-14a-(((1-methylcyclopropyl)sulfonyl)carbamoyl)-5,16-dioxo-1,2,3,5,6,7,8,9,10,11,13a,14,14a,15,16,16a-hexadecahydrocyclopropa[e]pyrrolo[1,2-a][1,4]diazacyclopentadecin-6-yl)carbamate] | 4.82 to 103 | < 5.46
10 | COc1ccc2c(O[C@@H]3C[C@H]4C(=O)N[C@]5(C(=O)NS(=O)(=O)C6(C)CC6)C[C@H]5/C=C\CC[C@@H](C)C[C@@H](C)[C@H](NC(=O)OC(C)(C)C)C(=O)N4C3)nc(-c3ccc(OC(C)C)c(F)c3)cc2c1 [Compound 3062, tert-butyl ((2R,6S,7R,9R,13aS,14aR,16aS,Z)-2-((3-(3-fluoro-4-isopropoxyphenyl)-6-methoxyisoquinolin-1-yl)oxy)-7,9-dimethyl-14a-(((1-methylcyclopropyl)sulfonyl)carbamoyl)-5,16-dioxo-1,2,3,5,6,7,8,9,10,11,13a,14,14a,15,16,16a-hexadecahydrocyclopropa[e]pyrrolo[1,2-a][1,4]diazacyclopentadecin-6-yl)carbamate] | < 5.46 | < 5.46
11 | COc1ccc2c(O[C@@H]3C[C@H]4C(=O)N[C@]5(C(=O)NS(=O)(=O)C6CC6)C[C@H]5/C=C\CC[C@H](C)C[C@@H](C)[C@H](NC(=O)OC(C)(C)C(F)(F)F)C(=O)N4C3)nc(-c3ccc(OC(C)C)c(F)c3)cc2c1 [Compound 3063, 1,1,1-trifluoro-2-methylpropan-2-yl((2R,6S,7R,9S,13aS,14aR,16aS,Z)-14a-((cyclopropylsulfonyl)carbamoyl)-2-((3-(3-fluoro-4-isopropoxyphenyl)-6-methoxyisoquinolin-1-yl)oxy)-7,9-dimethyl-5,16-dioxo-1,2,3,5,6,7,8,9,10,11,13a,14,14a,15,16,16a-hexadecahydrocyclopropa[e]pyrrolo[1,2-a][1,4]diazacyclopentadecin-6-yl)carbamate] | 4.82 to 103 | < 5.46
12 | COc1ccc2c(O[C@@H]3C[C@H]4C(=O)N[C@]5(C(=O)NS(=O)(=O)C6CC6)C[C@H]5/C=C\CC[C@@H](C)C[C@@H](C)[C@H](NC(=O)OC(C)(C)C(F)(F)F)C(=O)N4C3)nc(-c3ccc(OC(C)C)c(F)c3)cc2c1 [Compound 3064, 1,1,1-trifluoro-2-methylpropan-2-yl((2R,6S,7R,9R,13aS,14aR,16aS,Z)-14a-((cyclopropylsulfonyl)carbamoyl)-2-((3-(3-fluoro-4-isopropoxyphenyl)-6-methoxyisoquinolin-1-yl)oxy)-7,9-dimethyl-5,16-dioxo-1,2,3,5,6,7,8,9,10,11,13a,14,14a,15,16,16a-hexadecahydrocyclopropa[e]pyrrolo[1,2-a][1,4]diazacyclopentadecin-6-yl)carbamate] | < 5.46 | < 5.46
